# Structures can show the parent of a compound that is named as a salt.
# Columns and labels:
# Assay type in all cases: in vivo
# [1] = tested on: corn (DKC 58-89, DKC 52-61, DKC 65-81); assay: V5 corn yield, choline chloride, calcium chloride and PLURONIC F-68; conditions: for Avg. Yield (Bu/Ac) Trial 1 / Avg. Yield (Bu/Ac) Trial 2: foliar at V5 corn; for Avg. Yield (Bu/Ac) Trial 1: three hybrids (* two hybrids only), trial 1, one location; for Avg. Yield (Bu/Ac) Trial 2: three hybrids; for Avg. Δ in Yield (Bu/Ac): vs base seed treatment control, average of trials 1 and 2; for yield increase compared to base seed treatment control plants: foliar at V5
# Description: In a separate experiment, large acre field trials were conducted using one and two location trials in the US Midwest (IL) planted with three different corn hybrids (DEKALB: DKC 58-89; DKC 52-61; DKC 65-81). Seed from each of the corn hybrids was coated with a seed treatment of EVERGOL® fungicide combined with PONCHO®/VOTIVO® 500. Foliar treatments comprising a non-ionic polyoxyethylene-polyoxypropylene block copolymer surfactant (PLURONIC F-68, an anti-respirant), a quaternary ammonium salt (choline chloride) and/or a di-hydrated salt (calcium chloride) were applied to corn plants at the V5 stage of development. The foliar treatments were applied using the final concentrations and application use rates as described in Table 42. Choline chloride was selected for its osmolyte-like properties. Choline chloride is a precursor of acetylcholine and is involved in the regulation of water resorption in plants. Choline chloride was tested as a foliar application treatment individually and in combination an anti-respirant (PLURONIC F 68 surfactant). Average yield in Bu/Ac was reported for two trials. Trial 1 was conducted at one location and trial 2 was conducted at two locations in the US Midwest (IL). Yield (Bu/Ac) is reported as the average yield across location(s) and as the average for all three hybrids except where indicated in Table 42 and as the average change in yield (Bu/Ac) compared to the yield from the seed treatment control plants. The Base Seed Treatment control plants received only the EVERGOL® fungicide+PONCHO®/VOTIVO® 500 seed treatment and not any foliar treatments.
# [2] = tested on: corn (Beck's hybrid 5828 YH); assay: Corn growth rate under droughted conditions, alternative osmoprotectants; conditions: two weeks un-watered; Anti-Respirant Control A 29.0%
# From the text: Stachydrine was selected as an osmoprotectant that acts as a negative control due to its functional role in the induction of nodulation (Phillips, D. A., Joseph, C. M., Maxwell, C. A., “Trigonelle and stachydrine released from alfalfa seeds activate NodD2 protein in Rhizobium meliloti” (1992) Plant Physiology 99: 1526-1531). Stachydrine acts through a different mode of action as compared to the betaine-HCl osmoprotectant. Plant growth rates under droughted conditions were compared in corn treated with foliar applications comprising betaine-HCl, strachydrine or myo-inositol (see Table 37). Corn (Beck's hybrid 5828 YH) plants were planted in an environmentally controlled growth facility and grown using the conditions described in the first paragraph of this example. At 1.5 weeks, the plants were provided with another 50 mL of water per pot and plant height was measured for each plant. Plants were then segregated to prevent any cross contamination between the foliar treatments. […] Relative percent growth rate under droughted conditions was calculated for each plant in each treatment replicate using the percent (%) growth rate equation (as provided above in this Example). […]
# soybean (Asgrow AG4034) = assay: R2 soybean yield, trehalose, potassium acetate and SILWET L-77; conditions: for Avg. Yield (Bu/Ac): foliar at R2 soybean AG4034, three locations; for Avg. Δ in Yield (Bu/Ac): vs base seed treatment control
# From the text: In another experiment, large acre yield replicated trials of soybean (variety: Asgrow AG4034) were planted from seed treated with a base seed treatment package containing […]® fungicide and PONCHO®/VOTIVO® 500 in three locations in the US Midwest (IL). […] Trehalose is a non-reducing carbohydrate resistant to acid hydrolysis and stable in solution under high temperatures and acidic conditions. Trehalose was applied separately and in combination with a non-blended organosilicone surfactant ([…]-77) as a foliar spray application to soybean plants. Final concentrations at application were as follows: […]
# [3] = tested on: corn (Beck's hybrid 5828 YH); assay: Soil drench of corn seedlings under drought, growth during V2-V3 transition; conditions: for % Δ in Plant Height Compared to Control: 11 DAP to 14 DAP, vs water-only control; for change in plant height during V2 to V3 transition compared to water-only control: soil drench at planting and day 3, 11 to 14 days after planting; for Plant Growth during the transition of V2-V3 stage (11 DAP to 14 DAP): soil drench, each component 438.5 mL/hectare, droughted conditions
# From the text: The anti-respirant also functioned as an infiltration surfactant (above-soil surfactant or penetrant) and the anti-desiccant functioned as a humectant. […] A combined treatment with betaine-HCl (osmoprotectant), an infiltration surfactant (anti-respirant) and a humectant (anti-desiccant) was also compared with other drench treatments and a water-only control. Glycerol, a polyol compound that has three hydroxyl groups that are responsible for its solubility in water and its hydroscopic nature, was selected as a viscous humectant to combine with the betaine-HCl osmoprotectant and the infiltration surfactant. This triple treatment combination was selected based on its mode of action properties in soil drench applications that promote the retention and management of moisture by attracting moisture and condensing it for contact to the germinating seed and/or growing plant. The treatment combination was provided as a soil drench at the time of planting and again at emergence to promote rapid growth at the early V stages of development, enhance early vigor, provide for a robust stand establishment, and protect against the effects of drought during early seedling establishment. The betaine-HCl osmoprotectant was provided at a final application concentration of 83.49 mM. The infiltration surfactant was diluted in water at the recommended application use rate using a ratio of 1:1600 (surfactant to water) (52.9 μM). The humectant was provided at a final application treatment of 1% diluted in water (136.8 mM). The individual and combined treatments were provided using the application use rates (Fl. oz/Ac) as specified in Tables 54 and 55. […] In Table 55, the application use rates for all three components were the same. […] Seeds were planted at a depth of 2.54 cm, with two seeds per pot. After planting, seeds were supplied with 50 mL of the each of the treatments (as described in Tables 54 and 55) at room temperature and added to the soil in each pot as a soil drench provided at an equivalent application use rate as specified. […] After application of the second drench, the plants were left un-watered to induce and simulate droughted conditions that may occur during early seedling establishment. […] At 11 days after planting, plant height was determined for each plant in the various treatments. Corn plants provided with treatments as described in Table 55 received an additional 50 mL of water at 11 days after planting.
smiles,measurement,setting,value
O.O.[Ca+2].[Cl-].[Cl-] [Calcium Chloride (dihydrate)],Avg. Yield (Bu/Ac) Trial 1,[1],201.4 Bu/Ac
same,Avg. Yield (Bu/Ac) Trial 2,[1],169.6 Bu/Ac
same,Avg. Δ in Yield (Bu/Ac),[1],+11.8 Bu/Ac
"O[C@H]1[C@H](O)[C@@H](O)[C@H](O)[C@@H](O)[C@H]1O [Myo-inositol, myo-inositol]",Relative Growth Rate (%) under Droughted Conditions,[2],31.1%
CC(=O)[O-].[K+] [Potassium Acetate],Avg. Yield (Bu/Ac),soybean (Asgrow AG4034),67.2 Bu/Ac
same,Avg. Δ in Yield (Bu/Ac),soybean (Asgrow AG4034); three locations,+0.35 Bu/Ac
[Ca+2].[Cl-].[Cl-] [calcium chloride],yield increase compared to base seed treatment control plants,[1],+11.8 Bu/Ac
C[N+](C)(C)CCO.[Cl-] [choline chloride],yield increase compared to base seed treatment control plants,[1],+8.5 Bu/Ac
same,Avg. Yield (Bu/Ac) Trial 1,[1],207.3* Bu/Ac
same,Avg. Yield (Bu/Ac) Trial 2,[1],157.2 Bu/Ac
same,Avg. Δ in Yield (Bu/Ac),[1],+8.5 Bu/Ac
"OCC(O)CO [humectant-only control, glycerol]",% Δ in Plant Height Compared to Control,[3],+3%
same,change in plant height during V2 to V3 transition compared to water-only control,[3],+3%
same,Plant Growth during the transition of V2-V3 stage (11 DAP to 14 DAP),[3],2.98 cm
"C[N+](C)(C)CC(=O)O [osmoprotectant-only control, betaine-HCl]",% Δ in Plant Height Compared to Control,[3],+8%
same,change in plant height during V2 to V3 transition compared to water-only control,[3],+8%
same,Plant Growth during the transition of V2-V3 stage (11 DAP to 14 DAP),[3],3.11 cm
OC[C@H]1O[C@H](O[C@H]2O[C@H](CO)[C@@H](O)[C@H](O)[C@H]2O)[C@H](O)[C@@H](O)[C@@H]1O [trehalose],average change in soybean yield compared to seed treatment-only control,"soybean (Asgrow AG4034); R2, trehalose 6.4 Fl. oz/Ac, SILWET L-77 3.2 Fl. oz/Ac, three locations",+1.49 Bu/Ac
same,Avg. Yield (Bu/Ac),soybean (Asgrow AG4034),68.3 Bu/Ac
same,Avg. Δ in Yield (Bu/Ac),soybean (Asgrow AG4034); three locations,+1.49 Bu/Ac
